Measured values published in PMC4230943, “Mimicking Hypoxia to Treat Anemia: HIF-Stabilizer BAY 85-3934 (Molidustat) Stimulates Erythropoietin Production without Hypertensive Effects” (PLoS ONE, 2014).

Experiments:
[1] = system: male Wistar rats; assay: Time-course of kidney mRNA expression (EPO, HIF target genes) and plasma EPO after a single dose; type: in vivo, rat
Procedure: Male Wistar rats (240–340 g in body weight) were housed with five animals per cage for at least 1 week before experimentation. Blood samples from rats were collected under anesthesia (2% isoflurane in air) by puncturing the retro-orbital vein plexus with a glass capillary. In a repeat-dose, 26-day experiment, animals were administered vehicle or BAY 85-3934 at doses of 0.5 mg/kg, 1.25 mg/kg, 2.5 mg/kg, and 5 mg/kg. PCV was determined at baseline and at weekly intervals after centrifugation in a hematocrit capillary tube (Brand) for 10 min at full speed in a Haemofuge centrifuge (Heraeus). The number of reticulocytes in 5 µl blood was counted after staining with thiazol orange (Becton Dickinson) according to the manufacturer’s instructions by FACS analysis on a BD FACSCalibur system (Becton Dickinson). The efficacy of BAY 85-3934 (2.5 mg/kg, once-daily, oral) was also compared with that of rhEPO (25 IU/kg, 50 IU/kg, and 100 IU/kg, twice-weekly, s.c. injection). The time-course of induction of EPO mRNA expression and plasma EPO was determined at baseline and 0.5 h, 1 h, 2 h, 4 h, 6 h, and 8 h after oral administration of a single dose of BAY 85-3934 (5 mg/kg).
(§1) EPO was measured in plasma samples taken from rodents using a commercial ELISA kit (R&D Systems), according to the manufacturer’s instructions. Relative plasma EPO levels were given in picograms per milliliter. In cynomolgus monkeys, EPO was measured using a combination anti-human EPO ELISAs (R&D Systems and Roche Diagnostics), with human EPO as a standard. Values were given as units per liter. For determination of plasma prorenin from rats, a commercial ELISA (Oxford Biomedical Research) was used according to the manufacturer’s instructions. Hemoglobin in rodent blood samples was determined on a Cell-Dyn 3700 apparatus (Abbott Diagnostics). BAY 85-3934 plasma concentrations were determined after protein precipitation with acetonitrile/ammonium acetate using an internal standard, followed by separation using HPLC/mass spectrometry.
Total RNA was extracted from shock-frozen cell or tissue samples using the TRIzol method. Integrity of obtained RNA was checked on a Bioanalyzer (Agilent Technologies). For reverse transcription, 1 µg of total RNA was digested with RNase-free DNase I (Gibco) for 15 min at room temperature, and then reverse-transcribed using Promiscript (Promega GmbH) in a total reaction volume of 40 µl according to the standard protocol of the supplier. After inactivation of the enzyme by heating to 65°C for 15 min, the obtained cDNA was diluted to a final volume of 150 µl with double-distilled water, and 4 µl used per PCR reaction. qRT-PCR, including normalization of raw data to cytosolic β-actin, was carried out as described previously. The resulting expression is given in arbitrary units.

[2] = system: male Wistar rats; assay: Comparison of oral BAY 85-3934 with rhEPO on erythropoiesis; type: in vivo, rat
Procedure: Male Wistar rats (240–340 g in body weight) were housed with five animals per cage for at least 1 week before experimentation. Blood samples from rats were collected under anesthesia (2% isoflurane in air) by puncturing the retro-orbital vein plexus with a glass capillary. In a repeat-dose, 26-day experiment, animals were administered vehicle or BAY 85-3934 at doses of 0.5 mg/kg, 1.25 mg/kg, 2.5 mg/kg, and 5 mg/kg. PCV was determined at baseline and at weekly intervals after centrifugation in a hematocrit capillary tube (Brand) for 10 min at full speed in a Haemofuge centrifuge (Heraeus). The number of reticulocytes in 5 µl blood was counted after staining with thiazol orange (Becton Dickinson) according to the manufacturer’s instructions by FACS analysis on a BD FACSCalibur system (Becton Dickinson). The efficacy of BAY 85-3934 (2.5 mg/kg, once-daily, oral) was also compared with that of rhEPO (25 IU/kg, 50 IU/kg, and 100 IU/kg, twice-weekly, s.c. injection). […] The efficacy of oral treatment with BAY 85-3934 was compared with that of standard rhEPO treatment in male Wistar rats.

[3] = system: male Wistar rats; assay: Single oral dose: plasma EPO and reticulocytes in healthy rats; type: in vivo, rat
Procedure: Male Wistar rats (240–340 g in body weight) were housed with five animals per cage for at least 1 week before experimentation. Blood samples from rats were collected under anesthesia (2% isoflurane in air) by puncturing the retro-orbital vein plexus with a glass capillary. […] The number of reticulocytes in 5 µl blood was counted after staining with thiazol orange (Becton Dickinson) according to the manufacturer’s instructions by FACS analysis on a BD FACSCalibur system (Becton Dickinson). […] The time-course of induction of EPO mRNA expression and plasma EPO was determined at baseline and 0.5 h, 1 h, 2 h, 4 h, 6 h, and 8 h after oral administration of a single dose of BAY 85-3934 (5 mg/kg). EPO was measured in plasma samples taken from rodents using a commercial ELISA kit (R&D Systems), according to the manufacturer’s instructions. Relative plasma EPO levels were given in picograms per milliliter. […] Experiments were conducted in male Wistar rats to assess the threshold doses for EPO induction and the erythropoietic activity of BAY 85-3934.

[4] = system: matrix metalloproteinases and other peptidases; assay: Activity against related enzymes (n = 8); type: biochemical; details: 10 µM, n = 8 enzymes, data not shown
Procedure: The selectivity of BAY 85-3934 was examined via a broad panel of radio-ligand binding assays (n = 67), and by examining the activity of BAY 85-3934 against related enzymes (matrix metalloproteinases and other peptidases, n = 8). At a concentration of 10 µM, no significant (> 50%) activity in any of these assays was detected (data not shown).

[5] = system: male Wistar rats; assay: Subtotal nephrectomy (remnant kidney) model; type: in vivo, rat; details: same dose for 3 days, data not shown
[6] = system: cynomolgus monkeys; assay: Comparison of BAY 85-3934 with rhEPO (single dose and 14-day repeat dose); type: in vivo, cynomolgus monkey
Procedure: Male and female cynomolgus monkeys (2.8–5.6 kg in body weight) were used, which were housed two per cage. Blood samples from conscious cynomolgus monkeys were taken by puncturing a superficial vein. In a 5-day, repeat-dose study of plasma EPO response, BAY 85-3934 was administered at doses of 0.5 mg/kg and 1.5 mg/kg at 0 h, 24 h, 48 h, 72 h, and 96 h. Blood samples were taken at 7 h, 31 h, 55 h, 79 h, 103 h, and 168 h. Erythropoietic parameters were also evaluated after a 2-week treatment period with s.c. administration of rhEPO (100 IU/kg twice weekly at days 1, 4, 8, and 11) and BAY 85-3934 (1.5 mg/kg) once daily.
as §1
In a further study, the efficacy of oral treatment with BAY 85-3934 was evaluated in comparison with rhEPO. Animals were administered a single dose of rhEPO (100 IU/kg) by s.c. injection or BAY 85-3934 (1.5 mg/kg, oral). After administration of rhEPO, plasma concentrations of rhEPO were more than 8-fold higher than the endogenous EPO levels induced by treatment with BAY 85-3934 (Fig. 3B). The area under the curve (AUC) of rhEPO was more than 6-fold higher than the AUC of endogenous EPO. […] Mean reticulocyte counts were 2-fold higher after treatment with rhEPO than after treatment with BAY 85-3934, but returned to baseline values 8 days after treatment cessation.

O=c1c(-n2ccnn2)c[nH]n1-c1cc(N2CCOCC2)ncn1 [BAY 85-3934, 2-[6-(morpholin-4-yl)pyrimidin-4-yl]-4-(1H-1,2,3-triazol-1-yl)-1,2-dihydro-3H-pyrazol-3-one]
time of maximum EPO plasma concentration ([1]; 5 mg/kg oral, single dose): 6 h | time of peak kidney EPO mRNA expression ([1]; 5 mg/kg oral, single dose): 2 h | kidney mRNA induction of the other genes examined (moderate or absent) ([1]; 5 mg/kg single dose): less than 2 fold | time of peak mRNA levels of HMOX-1, IGFBP-1, adrenomedullin, ANGPTL-4 ([1]; 5 mg/kg single dose, kidney): 2 h | kidney ANGPTL-4 mRNA induction factor ([1]; 5 mg/kg single dose, p<0.01): 3.8 fold | kidney HMOX-1 mRNA induction factor ([1]; 5 mg/kg single dose, p<0.01): 3.2 fold | kidney adrenomedullin mRNA induction factor ([1]; 5 mg/kg single dose, p<0.01): 2.3 fold | kidney insulin-like growth factor binding protein-1 mRNA induction factor ([1]; 5 mg/kg single dose, p<0.01): 2.2 fold | kidney EPO mRNA induction over baseline ([1]; 5 mg/kg single dose, peak at 2 h): about 50 fold | equivalence of dose for gains in hematocrit and hemoglobin ([2]; BAY 85-3934 2.5 mg/kg once daily): equivalent to a twice-weekly dose of rhEPO (100 IU/kg) | hematocrit compared with the control group ([2]; BAY 85-3934 2.5 mg/kg once daily oral, rhEPO 25, 50, 100 IU/kg twice weekly s.c., p<0.001 at day 30): significant increase | time for which maximal plasma EPO concentrations were maintained ([3]; doses of 500 mg/kg and above): over 48 h | doses giving maximal EPO induction ([3]; single oral administration, data not shown): ≥ 500 mg/kg | doses giving statistically significant EPO induction ([3]; single oral administration, plasma EPO at 4 h): ≥ 1.25 mg/kg | doses giving a dose-dependent increase in the proportion of reticulocytes ([3]; single oral dose, 72 h): ≥ 1.25 mg/kg | activity against related enzymes [4]: ≤ 50% | blood pressure in normotensive rats [5]: did not affect blood pressure | mean gains of hemoglobin and red blood cells, both treatments compared ([6]; 14 days, rhEPO 100 IU/kg twice weekly s.c., BAY 85-3934 1.5 mg/kg once daily): almost completely congruent over time | induced EPO peak concentrations, factor within the normal physiological range ([6]; chronic once-daily administration): approximately 2 fold
